≈ marks a conversion by molar mass, not a printed value. Where “and” joins values, the source holds several entries; their conditions need not be identical. Equal values may be shown once.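 Growth conditions: 96-well plates. Treatment: test compound, 48 hours, 5 concentrations. Analysis: linear interpolation between bracketing concentrations; unreached endpoints set to highest concentration. Here, GI50 denotes the concentration required for 50% inhibition of growth. TGI is the concentration that stops growth completely.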 Calls of active or inactive are those of the source. No stated cut-off is given here; in the data, active means GI50 below about 0.43 µM; inactive means the rest.

Some test systems named below: M19-MEL melanoma; SNB-78 CNS; OVCAR-3 ovarian; K-562 leukemia; KM20L2 colon; NCI-H226 lung; DMS 273 small cell lung; DLD-1 colon; LXFL 529 NSCLC.
Holding throughout (experiment): inhibition of tumour cell growth, NCI panel, 48 h

For the compound `CN(C)CCC1(C2=CCCC2)CC/C(=C\c2ccccc2)C1=O` (stereo not drawn), the TGI in the experiment on M19-MEL melanoma was 28.5 µM; in the experiment with SNB-78 CNS, 46.2 µM; with OVCAR-3 ovarian it was 28.5 µM; in the experiment on K-562 leukemia it was 46.5 µM; with KM20L2 colon, 26 µM; in the experiment with NCI-H226 lung it was 31.1 µM. The figures for the TGI in the experiment with DMS 273 small cell lung, with DLD-1 colon and in the experiment on LXFL 529 NSCLC were 29 µM, 37.5 µM and 29.6 µM, respectively.

Turning to `CC[C@]12C=CCN3CCC4(c5cc([C@@]6(C(=O)OC)CC7CN(CCc8c6[nH]c6ccccc86)C[C@@H]6CCC[C@H]76)c(OC)cc5N(C)C4[C@](O)(C(=O)OC)C1OC(C)=O)C32` (stereo partly drawn), the TGI is more than 10 µM with M19-MEL melanoma; more than 2.85 µM with SNB-78 CNS; 0.337 µM in the experiment on OVCAR-3 ovarian; more than 10 µM with K-562 leukemia; 0.209 µM in the experiment on KM20L2 colon; 1.5 µM with NCI-H226 lung. For the same compound, the TGI in the experiment with DLD-1 colon and in the experiment on LXFL 529 NSCLC was more than 10 µM each time.

In the case of `CC1=NN(C(=O)Cc2ccccc2)C(=O)/C1=C\c1ccco1`, the TGI in the experiment on M19-MEL melanoma, with SNB-78 CNS, with OVCAR-3 ovarian, in the experiment on K-562 leukemia, in the experiment with NCI-H226 lung and with DMS 273 small cell lung was more than 100 µM each time. This compound also had a TGI with DLD-1 colon of more than 100 µM.

`NC(N)=Nc1nc2ccccc2[nH]1`: the GI50 with M19-MEL melanoma was 20.3 µg/mL; in the experiment on SNB-78 CNS it was 150 µg/mL; in the experiment with OVCAR-3 ovarian, 38.4 µg/mL (≈ 219 µM); with K-562 leukemia, 27.6 µg/mL; with NCI-H226 lung, 55.3 µg/mL; in the experiment with DMS 273 small cell lung it was 46.4 µg/mL. The GI50 in the experiment with DLD-1 colon is 54.4 µg/mL. Further, the TGI with M19-MEL melanoma is 51 µg/mL; in the experiment with SNB-78 CNS, more than 150 µg/mL; in the experiment with OVCAR-3 ovarian it was more than 150 µg/mL; with K-562 leukemia, more than 150 µg/mL; in the experiment on NCI-H226 lung, more than 150 µg/mL; with DMS 273 small cell lung it was more than 150 µg/mL. The compound also displayed a TGI in the experiment on DLD-1 colon of more than 150 µg/mL. In addition, the outcome in the experiment on KM20L2 colon was inactive.

As for `COc1ccc([C@@H]2CC(=O)NCCCCNCCCN2)cc1`, the TGI in the experiment on M19-MEL melanoma, with SNB-78 CNS, in the experiment with K-562 leukemia, in the experiment on KM20L2 colon, with NCI-H226 lung and with DMS 273 small cell lung was more than 100 µM throughout. Also, the TGI in the experiment on DLD-1 colon and in the experiment with LXFL 529 NSCLC was more than 100 µM throughout.

Turning to `BrC12c3ccccc3Sc3ccccc3C1(Br)c1ccccc12` (stereo not drawn), the TGI in the experiment with M19-MEL melanoma was more than 100 µM; with K-562 leukemia it was more than 100 µM; with KM20L2 colon, 41.6 µM; in the experiment with NCI-H226 lung it was 38.7 µM; in the experiment with DMS 273 small cell lung, 87.2 µM; with DLD-1 colon it was more than 100 µM. This compound also had a TGI in the experiment with LXFL 529 NSCLC of 59.7 µM.

For `CCOC(=O)/C=C/c1ccccn1`, the TGI in the experiment with M19-MEL melanoma, with SNB-78 CNS, with K-562 leukemia, in the experiment on NCI-H226 lung, in the experiment on DLD-1 colon and in the experiment with LXFL 529 NSCLC was more than 100 µM throughout.

As to `CC(=O)NC(CCCCNC(=O)N(C)N=O)C(=O)NCc1ccccc1` (stereo not drawn), the TGI in the experiment with M19-MEL melanoma, in the experiment on SNB-78 CNS, in the experiment with OVCAR-3 ovarian, in the experiment with K-562 leukemia, in the experiment with KM20L2 colon and in the experiment with NCI-H226 lung was more than 100 µM each time. Besides, the TGI in the experiment with DMS 273 small cell lung, with DLD-1 colon and in the experiment with LXFL 529 NSCLC was more than 100 µM throughout.

As for `COc1cc([C@@H]2c3cc4c(c(O)c3C[C@H]3COC(=O)[C@@H]32)OCO4)cc(OC)c1O`, the GI50 in the experiment on M19-MEL melanoma was 4.61 nM; with SNB-78 CNS it was 3.09 nM; in the experiment with K-562 leukemia, 3.12 nM; in the experiment with KM20L2 colon it was 10.5 nM and 33.2 nM; in the experiment with NCI-H226 lung, 5.62 nM; with DMS 273 small cell lung it was 1.98 nM. In addition, in the experiment on DLD-1 colon, the GI50 was 4.21 nM and 20 nM. For the same compound, the TGI is more than 200 µM in the experiment with M19-MEL melanoma; more than 200 µM in the experiment with SNB-78 CNS; more than 50.2 µM with K-562 leukemia; 0.0279 µM and 0.059 µM in the experiment with KM20L2 colon; more than 200 µM with DLD-1 colon; 0.00859 µM in the experiment on LXFL 529 NSCLC.

Consider `N#Cc1c2nc3ccccc3nc2n2ccc3ccccc3c12`, for which the TGI in the experiment with M19-MEL melanoma, in the experiment with SNB-78 CNS, with OVCAR-3 ovarian, with K-562 leukemia, in the experiment on NCI-H226 lung and with DMS 273 small cell lung was more than 100 µM throughout. The TGI in the experiment on DLD-1 colon and with LXFL 529 NSCLC was more than 100 µM throughout.

On to `COC(=O)NN1C(C)=C(C(=O)OC)C2(CCOC2=O)C1(C)O` (stereo not drawn), for which the TGI in the experiment on SNB-78 CNS, in the experiment with OVCAR-3 ovarian, in the experiment with K-562 leukemia, with KM20L2 colon, with NCI-H226 lung and in the experiment with DMS 273 small cell lung was more than 100 µM throughout. Moreover, the TGI in the experiment on DLD-1 colon and with LXFL 529 NSCLC was more than 100 µM each time.

As for `Cc1ccc(C2=C(c3ccccc3)C(O)(c3ccc(C)cc3)C(c3ccccc3)=C2c2ccc(C)cc2)cc1`, the TGI with M19-MEL melanoma, in the experiment on SNB-78 CNS, in the experiment on OVCAR-3 ovarian, in the experiment with K-562 leukemia, in the experiment on KM20L2 colon and in the experiment with DMS 273 small cell lung was more than 100 µM each time. In addition, the TGI in the experiment with DLD-1 colon and with LXFL 529 NSCLC was more than 100 µM each time.

On to `S=C(Nc1ccccc1)N1N=C2c3ccccc3CC[C@H]2[C@@H]1c1ccccc1`, for which the TGI in the experiment with M19-MEL melanoma, with SNB-78 CNS, with OVCAR-3 ovarian, with KM20L2 colon, with NCI-H226 lung and in the experiment on DLD-1 colon was more than 100 µM in each case. In the experiment on LXFL 529 NSCLC, this compound displayed a TGI of more than 100 µM.
